Data reported in patent US20230113802A1, “COMPOSITION AND METHOD TO PREPARE LONG-ACTING INJECTABLE SUSPENSION CONTAINING MULTIPLE CANCER DRUGS” (University of Washington, priority 2020, published 2023).

Test: Pharmacokinetic study of GT in DcNPs compared to CrEL (Example 2), plasma G, T and dFdU
Format: in vivo, BALB/c mice
Source text: Drugs extracted from biological matrices such as plasma or tissue homogenates were quantified by a Shimadzu HPLC system coupled to a 3200 QTRAP mass spectrometer (Applied Biosystems, Grand Island, N.Y.). The HPLC system consisted of two Shimadzu LC-20A pumps, a DGU-20A5 degasser, and a Shimadzu SIL-20AC HT autosampler. The mass spectrometer was equipped with an electrospray ionization (ESI) TurbolonSpray source. The system was operated with Analyst software, version 1.5.2 (ABSciex, Framingham, Mass.). Chromatographic separation of G and T was achieved using a Synergi column (100×2.0 mm; 4-μm particle size) (Phenomenex, Torrance, Calif.) with an inline C8 guard column (4.0×2.0 mm) also from Phenomenex. The flow rate was set to 0.5 mL/min with a 5 μl sample injection volume. The mobile phase for separation consisted of pump A (20 mM Ammonium Acetate in water) and B (Reagent Alcohol). […] The needle was washed with isopropanol after each injection. Analytes were monitored using multiple-reaction monitoring (MRM) for positive ions.
Statistical comparisons were performed using 2-sided t-tests with Welch's correction for unequal variances. Significance probability α was set at 0.05. Pharmacokinetic parameters from non-compartmental analysis were calculated using the trapezoidal rule and relevant pharmacokinetic equations shown in Table 3.

## O=c1ccn([C@@H]2O[C@H](CO)[C@@H](O)C2(F)F)c(=O)[nH]1 [dFdU, 2′,2′-difluoro-deoxyuridine]
CrEL control dosage form
  plasma dFdU times higher than G at 3 hours: 50 times
GT DcNP dosage form
  plasma dFdU times lower than G at 3 hours: 3.4 times
After GT in CrEL control dosage form IV, mice
  plasma concentration within 15 minutes: 11836.7 ng/mL
female, BALB/c, mouse, plasma, intravenous, after control CrEL dosing, 50/5 mg/kg G/T IV, mice
  concentration at 3 h: 4340 ng/mL
